Patent US20020150915A1, “Promoter sequences” (priority 2000, published 2002)

Biological target: T1, CAR (Homo sapiens, UniProt Q14994)
T1 construct: amplifying full-length CAR by RT-PCR from total RNA prepared from C3A/HepG2 cells; expressed in transfected cells; host or cells: C3A cells (HepG2 derivative), transient transfection with pcDNA3-hCAR
T1 sequence (Q14994 1-348 isoform Q14994-2): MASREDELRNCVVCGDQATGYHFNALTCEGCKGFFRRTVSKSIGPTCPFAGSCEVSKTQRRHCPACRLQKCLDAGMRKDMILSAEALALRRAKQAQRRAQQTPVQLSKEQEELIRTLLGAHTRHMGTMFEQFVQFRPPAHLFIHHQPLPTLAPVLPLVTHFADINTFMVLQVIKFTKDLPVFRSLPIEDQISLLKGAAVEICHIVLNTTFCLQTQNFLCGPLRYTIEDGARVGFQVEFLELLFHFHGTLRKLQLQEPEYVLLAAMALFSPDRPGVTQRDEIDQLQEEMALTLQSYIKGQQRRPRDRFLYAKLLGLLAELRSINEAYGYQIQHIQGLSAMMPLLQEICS
Experiment: Cell based CYP3A7 promoter-luciferase reporter assay with CAR expression vector
Conditions: C3A cells transfected with CYP3A7-9302 reporter and CAR expression vector; 10 μM compound, 48 hours; FIG. 3
Procedure: C3A cells were transfected with Cyp3A7 promoter with (Cyp3A7-9302) or without (CYP3A7-7478) the XREM and with CAR expression vector (CAR) or with empty (pcDNA3) expression vector. Cells were treated with vehicle (DMSO) or 10 μM of rifampicin or clotrimasol. Relative luciferase values represent luciferase activity compensated for the alkaline phosphatase reporter. The data are mean values +/−SD for six wells of a typical experiment
Six well plates were seeded with 0.5×10^6 C3A cells. The cells were maintained in MEM with phenol red containing L-glutamine and supplemented with nonessential amino acids. The medium also contained 10% foetal bovine serum (life Technologies). The cells were allowed to settle for 24 hours before the medium was replaced by medium containing 10% charcoal treated foetal bovine serum (Hyclone Laboratories). Each well was transfected with 0.1 μg RSV-AF, 2 μg of the indicated reporter and 0.5 μg of the expression vector for PAR-2, CAR or the empty expression vector, pcDNA3. FuGENE 6™ Transfection Reagent (Roche) was used according to recommendations from the manufacturer. After 24 hours the medium was replaced by fresh medium containing 10% charcoal treated foetal bovine serum. […] After induction for 48 hours the medium was analysed for the alkaline phosphatase activity and the luciferase activity was measured in the cell lysate as described (Bertilsson et al., 1998). […]

- CAR dependent induction of CYP3A7 reporter: reduced
Compound: Clc1ccccc1C(c1ccccc1)(c1ccccc1)n1ccnc1 [clotrimazole]
